{
  "source": "patent US20020155540A1",
  "about": "“Method to reduce transcriptional interference between tandem genes” (priority 2001, published 2002)",
  "tested_on": "ecdysone receptor (EcR) based, chemically inducible gene expression system",
  "experiment": "Ecdysone receptor-based gene induction: upstream LUC activation and downstream RLUC expression in protoplasts",
  "format": "cell-based, tobacco",
  "experimental": "Protoplasts were prepared from actively growing tobacco BY-2 suspension cells (Japan Tobacco, Japan) and cultured essentially as described in Kikkawa et al. (9). One ml of protoplasts (5×10^5 to 1×10^6 cells) was mixed with plasmid DNA and electroporated at 0.56 K Volts for 80 μ seconds using an electroporation system with petripulser electrode (BTX). Equimolar plasmid DNA was added to transfections and the amount of DNA added varied from 23 to 30 μg depending on the plasmid size. To standardize the luciferase enzyme assays, 2 μg of the RLUC plasmid DNA were also added to each transfection as an internal control. Following the electroporation, protoplasts were diluted with 1 ml of 2×protoplast culture medium, aliquoted as two 1 ml cultures and incubated at 27° C. for 16-17 h. Each plasmid construct was tested in 5 to 7 independent transfection experiments.\nProtoplast cultures were lysed by adding 250 μl of 5× passive lysis buffer (Promega) and shaking at room temperature for 10 minutes. […] The assay was performed with a luminometer plate reader (Dynex). The luciferase enzyme activities were measured and expressed as ratios of luciferase to Renilla luciferase activities in relative light units.\nInduction of the Luc gene expression cassette was controlled by the addition of EcR ligand methoxyfenozide.\nIt contains a constitutively expressed chimeric GVE receptor gene (CsVMV promoter—sequences coding for GAL4 DNA binding domain, VP16 activation domain, and EcR ligand binding domain—NOS terminator) and an inducible promoter (five copies of GAL4 response element+minimal 35S promoter) to drive LUC gene expression (FIG. 1D). When the ligand methoxyfenozide (4) is applied to protoplasts, it binds to and activates the chimeric receptor. The activated receptor then induces LUC gene expression. This system was used to activate the upstream LUC gene, and the influence of LUC activation on the downstream constitutive RLUC gene expression was then measured.",
  "data": [
    {"smiles": "COc1cccc(C(=O)NN(C(=O)c2cc(C)cc(C)c2)C(C)(C)C)c1C", "note": "[methoxyfenozide]", "values": [
      {"measurement": "Luc Induced", "setting": "10 μM methoxyfenozide", "result": "25,428 RLU"},
      {"measurement": "RLuc Induced", "setting": "10 μM methoxyfenozide", "result": 8832, "unit": "RLU"},
      {"measurement": "reduction of downstream, constitutively expressed RLuc expression", "setting": "after activation of upstream Luc gene with ligand", "result": 71, "unit": "%"}
    ]}
  ]
}
